# Data from US7049334B2, “Enhancement of learning and memory and treatment of amnesia” (priority 2001, dated 2006).
# Columns and labels:
# [1] = test system: hippocampal slices taken from young rats; assay: Plasticity induced by low-frequency stimulation (LTD) in hippocampal slices; assay type: cell-based, Wistar rats
# Description: After decapitation, brains of either adult ([…], for the induction of long-term potentiation) or young (2–3 weeks old, for the induction of long-term depression) Wistar rats were rapidly removed, and the hippocampus was dissected out. Transverse hippocampal slices (450 μm thickness) were immediately placed in an ice-cold cutting buffer containing 124 mM NaCl, 3 mM KCl, 1.0 mM Na2HPO4, 25 mM NaHCO3, 0.5 mM CaCl2, 5.0 mM MgSO4, 10 mM glucose, saturated with 95% O2 and 5% CO2. The slices were then maintained in an interface chamber at room temperature, and perfused at flow rate of 1–2 mL/min with artificial cerebrospinal fluid (ACSF). The composition of ACSF contained 124 mM NaCl, 4.4 mM KCl, 1.0 mM Na2HPO4, 25 mM NaHCO3, 2.0 mM or 2.5 mM CaCl2, 1.0 mM MgSO4, 10 mM glucose, gassed with 95% O2 and 5% CO2. The field Excitatory Postsynaptic Potentials (fEPSP) was evoked by test pulses through a bipolar stimulating electrode placed on the Schaffer collateral/commissural pathway, and recorded from the stratum radiatum of CA1 using a glass micropipette electrode (5–10 MΩ) filled with 2 M NaCl. The test pulse duration was 100 μsec, and test responses were elicited at 0.02 Hz. To record field potentials in the cortico-amygdala pathway, a stimulating electrode was placed in the external capsule, which contained fibers from the auditory cortex to the lateral amygdala. Bicuculine (10 μM) was present in the perfusion solution when the fEPSPs of amygdala were recorded. To increase the effectiveness of fused pyrazolyl compounds that were applied through the perfusion system, the ACSF level in the recording chamber was sufficiently high to cover the hippocampal slices but not to float them. All fused pyrazolyl compounds were perfused in ACSF.
# Evoked fEPSPs were recorded and data were analyzed. The initial slope of the fEPSPs was calculated, and the data were expressed as percentages of the average of the base-line slope of the fEPSPs.
# Compound 1 on plasticity induced by low-frequency stimulation (LFS): LFS (900 pulses at 1 Hz) was delivered to hippocampal slices taken from young rats ([…]) to induce long-term depression (LTD). Stimulation of hippocampal slices at 1 Hz for 3 min produced no LTD of synaptic transmission. However, this short-duration LFS induced significant LTD in the presence of Compound 1 (83.4±10.9%, n=3). […] A weaker electrical stimulation at 0.02 Hz was delivered in the presence of both nitric oxide donor nitroprusside ([…]) and Compound 1 (1.6 μM). Simultaneous perfusion of the nitric oxide donor nitroprusside (30 μM) and Compound 1 (1.6 μM) induced LTD.
# [2] = test system: Schaffer collateral-CA1 pathway of rat hippocampal slices; assay: LTP induction in Schaffer collateral-CA1 pathway of hippocampal slices (fEPSP slope); assay type: cell-based, Wistar rats; conditions: for fEPSP slope: 1.6 μM perfused 6 min (3 min before and 3 min after tetanus)
# [3] = test system: rats (spatial memory); assay: Morris water maze; assay type: in vivo
# Description: Morris water maze: Morris water maze was performed in a circular pool (224 cm in diameter, 46 cm in height) located in a room with distinctive visual cues. Water was filled to a depth of 36 cm and a transparent plastic platform (25×25 cm, 32 cm in height) was located at the center of a fixed quadrant. Rats were trained for two days in the task environment: free-swimming in the pool without the transparent plastic platform. Each training session was 2 min and the rats were picked up from the pool by an experimenter. Then, rats received 4 consecutive daily training trials for the following six days. During each training trial, each rat was placed into the water randomly from one of the quadrants. The rat had to swim until it climbed onto the plastic platform submerged underneath the water. The time duration from being placed into the water to climbing onto the plastic platform was recorded and defined as escape latency. […] Each rat stayed on the platform for 60 s, which also served as the interval of trial. Compound 1 (1 mg/kg) or vehicle was daily injected to each rat 10 min before the first training trial. After the last training trial of each day, each rat was dried by a towel, and an electric heater was placed in its home cage.
# Substantial evidence implicates the hippocampus in acquisition and retention of spatial information. See, e.g., Ohon et al. (1979) Behav. Brain Sci. 2: 316–365; and Barnes (1988) Trend Neurosci. 11: 163–169. The effect of Compound 1 on the acquisition of spatial memory in the Morris water maze was tested. Rats received 4 consecutive training trials every day. Compound 1 (1 mg/kg) was daily injected (i.p., 1 mg/kg) 10 min before the first trial of training. […] The escape latencies of 2˜4 trials were 93.8±8.7 s, 79.3±12/3 s and 57.6±12.5 s for a control group, and 50.4±10.2 s, 47.3±6.8 s and 30.3±10.3 for the Compound 1 group (n=10), respectively. The escape latencies of the first trial on the following 3 training days were also markedly shortened in the Compound 1 group. The escape latencies were 91.1±9.8 s, 47.1±3.9 s and 35.3±6.1 s for the control group, and 55.4±12.8 s, 15.3±2.1 s, and 13.4±1.7 s for the Compound 1 group (n=10), respectively. […] The escape latency is shorter in the Compound 1 group throughout the whole experimental period up to 21 days although Compound 1 was only administered […] for 4 days. The mean escape latency on the day-21 is 13.5±1.8 s and 6.0±0.5 s (n=10 each) for the control group and the Compound 1 group, respectively. From results shown above, Compound 1 is a promising drug for improving learning and memory. Compound 1 was mixed with 1.25% carboxymethylcellulose (CMC) and orally delivered to stomach (10 mg/kg) directly 30 min before the first trial for 6 successive days.
# Since L-NAME antagonized Compound 1-induced LTP enhancement in hippocampal slices, in vivo experiments were performed to test the effect of L-NAME on the improved learning and memory provoked by Compound 1. In these experiments, rats chronically implanted with cannulae were injected intracerebroventrically with L-NAME (1 mmole/10 mL) or saline 10 min before the first trial of daily training, concomitant with i.p. injection of Compound 1 (1 mg/kg). […] Intracerebroventricular administration of KT 5823 also impaired the Compound 1-induced enhancement.
# [4] = i.p. 1 mg/kg daily 10 min before first trial, n=10
compound,measurement,setting,value
"OCc1ccc(-c2nn(Cc3ccccc3)c3ccccc23)o1 [Compound 1, 1-benzyl-3-(5′-hydroxymethyl-2′-furyl)-indazole]",plasticity with perfusion during LFS,[1]; 1.6 μM perfused for 15 min during LFS (900 pulses at 1 Hz),reversed the LTD plasticity into LTP
same,"potentiation of fEPSP at 0.02 Hz stimulation, substance alone","[1]; 0.02 Hz stimulation, alone",produced no potentiation
same,plasticity at 0.02 Hz with nitric oxide donor nitroprusside,"[1]; 0.02 Hz stimulation, simultaneous perfusion of nitroprusside (30 μM) and Compound 1 (1.6 μM)",induced LTD
same,fEPSP (LTD) after short-duration LFS,"[1]; 1 Hz for 3 min, in the presence of Compound 1, young rats",83.4±10.9%
same,LTP when compound added after tetanus,[2]; 1.6 μM added to ACSF 10 min after 2 trains of strong tetanus (100 Hz/1 sec),not further potentiated
same,"fEPSP slope, simultaneous application of AP-5 and MCPG",[2]; AP-5 and MCGP applied simultaneously with Compound 1,111.5±12.3%
same,"LTP induced by Compound 1, concomitant perfusion with L-NAME",[2]; L-NAME 300 μM (nitric oxide synthase inhibitor),significantly attenuated
same,"LTP induced by Compound 1, with Zinc protoporphyrin",[2]; Zinc protoporphyrin 1 μM (heme oxygenase inhibitor),did not affect
same,fEPSP,"[2]; fEPSP slope 60 min after weak tetanus (50 Hz, 0.5 s), 1.6 μM perfused 3 min before and 3 min after tetanus",172.9%
same,fEPSP slope,"[2]; strong tetanus (two 100 Hz, 1 sec trains 20 sec apart), at 50 min after tetanus, % of base-line slope",404.7±34.9%
same,fEPSP slope,"[2]; weak tetanus (20 Hz, 0.5 sec train), at 1 hr",172.9±10.7%
same,"fEPSP slope, co-perfused with AP5","[2]; weak tetanus (50 Hz/0.5 s), with AP5 100 μM (NMDA receptor antagonist)",142.1±13.5%
same,"fEPSP slope, co-perfused with KT5823","[2]; weak tetanus (50 Hz/0.5 s), with KT 5823 2 μM (protein kinase G inhibitor)",112.9±5.4%
same,"fEPSP slope, co-perfused with ODQ","[2]; weak tetanus (50 Hz/0.5 s), with ODQ 5 μM (soluble guanylyl cyclase inhibitor)",107.8±3.9%
same,"LTP induced by Compound 1, co-perfused with MCPG",[2]; with MCPG 100 μM,reduced
same,"enhanced learning and memory induced by Compound 1, with L-NAME","[3]; L-NAME intracerebroventricular 10 min before first trial, with i.p. Compound 1 (1 mg/kg)",significantly blocked
same,"escape latency, trial 2 of first training day",[3]; [4],50.4 ± 10.2 s
same,"escape latency, trial 3 of first training day",[3]; [4],47.3 ± 6.8 s
same,"escape latency, trial 4 of first training day","[3]; i.p. 1 mg/kg daily 10 min before first trial, n=10, in s (unit assumed)",30.3±10.3
same,"escape latency of the first trial, first of the following 3 training days","[3]; i.p. 1 mg/kg, n=10",55.4 ± 12.8 s
same,"escape latency of the first trial, second of the following 3 training days","[3]; i.p. 1 mg/kg, n=10",15.3 ± 2.1 s
same,"escape latency of the first trial, third of the following 3 training days","[3]; i.p. 1 mg/kg, n=10",13.4 ± 1.7 s
same,mean escape latency on day-21,"[3]; i.p. 1 mg/kg, n=10",6.0 ± 0.5 s
same,"Compound 1-induced enhancement, with KT 5823",[3]; intracerebroventricular KT 5823,impaired
same,effect of oral administration on memory,"[3]; oral 10 mg/kg in 1.25% CMC, 30 min before first trial for 6 successive days",promoted short-term and long-term memory
